Results on 23 compounds are retold here after PubChem BioAssay AID248 (DTP/NCI, 2004).

In this experiment the test system is L1210 leukemia ip in BDF1 mice, survival T/C. The experiment can be described thus: NCI In Vivo Anticancer Drug Screen. Data for tumor model L1210 Leukemia (intraperitoneal) in B6D2F1 (BDF1) mice. Conditions: endpoint: mean survival time, higher = longer survival. The procedure, abridged: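 Read-out is survival time, reported as the treated-group measurement over the vehicle-control measurement.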

[1] abbreviates: dose: 100.0 mg/kg/injection, schedule: Q01DX009 (ip), vehicle: saline with Tween-80.
[2] abbreviates: dose: 200.0 mg/kg/injection, schedule: Q01DX009 (ip), vehicle: saline with Tween-80.
Setting [3] is: dose: 400.0 mg/kg/injection, schedule: Q01DX009 (ip), vehicle: saline with Tween-80.
Where [4] appears, read: dose: 100.0 mg/kg/injection, schedule: Q01DX001 (ip), vehicle: saline.
The mark [5] stands for this setting: dose: 200.0 mg/kg/injection, schedule: Q01DX001 (ip), vehicle: saline.
[6] abbreviates: dose: 400.0 mg/kg/injection, schedule: Q01DX001 (ip), vehicle: saline.
The mark [7] stands for this setting: dose: 100.0 mg/kg/injection, schedule: Q04DX003 (ip), vehicle: saline with Tween-80.
Setting [8] is: dose: 200.0 mg/kg/injection, schedule: Q04DX003 (ip), vehicle: saline with Tween-80.
Setting [9] is: dose: 400.0 mg/kg/injection, schedule: Q04DX003 (ip), vehicle: saline with Tween-80.

SMILES strings stand for the structures. “And” between values parts separate entries of the source, which are not always exact repeats. Equal entries are not always repeated. Inconclusive results and toxic doses are left out.

`O=C1/C(=N/O)Cc2ccccc21`: the T/C (dose: 3.13 mg/kg/injection, schedule: Q01DX009 (ip), vehicle: saline with Tween-80) is 91 % of control; the T/C (dose: 6.25 mg/kg/injection, schedule: Q01DX009 (ip), vehicle: saline with Tween-80) was 91 % of control; the T/C (dose: 12.5 mg/kg/injection, schedule: Q01DX009 (ip), vehicle: saline with Tween-80) was 94 % of control; the T/C (dose: 25.0 mg/kg/injection, schedule: Q04DX003 (ip), vehicle: saline with Tween-80) was 102 % of control; the T/C (dose: 50.0 mg/kg/injection, schedule: Q04DX003 (ip), vehicle: saline with Tween-80) was 94 % of control.
`CCCCCCCCCc1ccc(OP(Oc2ccccc2)Oc2ccc(CCCCCCCCC)cc2)cc1`: the T/C reads like this: (dose: 75.0 mg/kg/injection, schedule: Q01DX001 (ip), vehicle: saline) 100 % of control; (dose: 150.0 mg/kg/injection, schedule: Q01DX001 (ip), vehicle: saline) 109 % of control.
As to `O=C(CCl)NP(=O)(O)OCc1ccccc1`, the T/C was 102 % of control (dose: 25.0 mg/kg/injection, schedule: Q04DX002 (ip), vehicle: saline); 94 % of control (dose: 50.0 mg/kg/injection, schedule: Q04DX002 (ip), vehicle: saline); 91 % of control (dose: 100.0 mg/kg/injection, schedule: Q04DX002 (ip), vehicle: saline).
As for `NC(=O)C(CC(=O)OCc1ccccc1)NC(=O)OCc1ccccc1` (stereo unspecified), the T/C reads like this: under setting [1], 92 % of control; under setting [2], 90 % of control; under setting [3], 97 % of control.
As for `CC(=O)OC1CCC(NC(=O)N(CCF)N=O)CC1` (stereo unspecified), the T/C reads like this: (dose: 20.0 mg/kg/injection, schedule: Q01DX001 (ip), vehicle: other) 298 % of control; (dose: 40.0 mg/kg/injection, schedule: Q01DX001 (ip), vehicle: other) 333 % of control.
`CC1(C)CC(OP(=O)(OC2CC(C)(C)N(O)C(C)(C)C2)OC2CC(C)(C)N(O)C(C)(C)C2)CC(C)(C)N1O`: the T/C (dose: 50.0 mg/kg/injection, schedule: Q01DX001 (ip), vehicle: water) was 104 % of control; the T/C (dose: 100.0 mg/kg/injection, schedule: Q01DX001 (ip), vehicle: water) is 94 % of control and 97 % of control; the T/C (dose: 200.0 mg/kg/injection, schedule: Q01DX001 (ip), vehicle: water) is 103 % of control; the T/C (dose: 400.0 mg/kg/injection, schedule: Q01DX001 (ip), vehicle: water) was 113 % of control.
Take `O=C(Nc1cccc([N+](=O)[O-])c1)Nc1ccccc1Cl`: the T/C reads like this: (dose: 100.0 mg/kg/injection, schedule: Q04DX002 (ip), vehicle: saline + alcohol) 88 % of control; (dose: 200.0 mg/kg/injection, schedule: Q04DX002 (ip), vehicle: saline + alcohol) 88 % of control; (dose: 400.0 mg/kg/injection, schedule: Q04DX002 (ip), vehicle: saline + alcohol) 88 % of control.
In the case of `COc1cccc(Cc2c[nH]c(=S)[nH]c2=O)c1`, the T/C (dose: 100.0 mg/kg/injection, schedule: Q01DX009 (ip), vehicle: Klucel (hydroxypropylcellulose) (HPC)) is 108 % of control and the T/C (dose: 200.0 mg/kg/injection, schedule: Q01DX009 (ip), vehicle: Klucel (hydroxypropylcellulose) (HPC)) is 96 % of control.
On to `Nc1nc(=O)n(C2CCCO2)cc1Br` (stereo unspecified), for which the T/C under setting [4] is 100 % of control, the T/C under setting [5] was 103 % of control and the T/C under setting [6] is 87 % of control.
For `Oc1cc2c3c(c1)-c1c(ccc(O)c1O)CC3NCC2` (stereo unspecified), the T/C by setting is: (dose: 6.25 mg/kg/injection, schedule: Q04DX003 (ip), vehicle: DMSO) 100 % of control; (dose: 12.5 mg/kg/injection, schedule: Q04DX003 (ip), vehicle: DMSO) 100 % of control; (dose: 25.0 mg/kg/injection, schedule: Q04DX003 (ip), vehicle: DMSO) 93 % of control; (dose: 50.0 mg/kg/injection, schedule: Q04DX003 (ip), vehicle: DMSO) 88 % of control.
With `COc1cc(=O)n2cc(C)ccc2n1`, the T/C is 98 % of control (dose: 50.0 mg/kg/injection, schedule: Q01DX001 (ip), vehicle: saline); 101 % of control under setting [4]; 95 % of control under setting [5]; 90 % of control under setting [6].
Consider `O=C(CNC(=O)c1ccccc1)Nc1ccc([N+](=O)[O-])cc1`, for which the T/C is 100 % of control under setting [4], 100 % of control under setting [5] and 94 % of control under setting [6].
With `CSc1nc(C)c(C=O)s1`, the T/C (dose: 100.0 mg/kg/injection, schedule: Q01DX001 (ip), vehicle: carboxymethylcellulose (CMC)) is 100 % of control; the T/C (dose: 200.0 mg/kg/injection, schedule: Q01DX001 (ip), vehicle: carboxymethylcellulose (CMC)) is 96 % of control; the T/C (dose: 400.0 mg/kg/injection, schedule: Q01DX001 (ip), vehicle: carboxymethylcellulose (CMC)) is 94 % of control.
`O=C1NOCC1NCc1c(O)ccc2ccccc12` (stereo unspecified): the T/C under setting [7] was 87 % of control, the T/C under setting [8] was 100 % of control and the T/C under setting [9] is 97 % of control.
In the case of `Cc1ccc[n+](CC(=O)CCc2ccc(C(=O)C[n+]3cccc(C)c3)cc2)c1`, the T/C is 94 % of control (dose: 0.07 mg/kg/injection, schedule: Q04DX003 (ip), vehicle: saline) and 101 % of control (dose: 0.14 mg/kg/injection, schedule: Q04DX003 (ip), vehicle: saline).
Regarding `CC(C=C1CCCCC1)C(=O)O` (stereo unspecified), the T/C is, setting by setting: (dose: 100.0 mg/kg/injection, schedule: Q01DX009 (ip), vehicle: saline) 95 % of control; (dose: 100.0 mg/kg/injection, schedule: Q04DX003 (ip), vehicle: saline) 102 % of control; (dose: 200.0 mg/kg/injection, schedule: Q01DX009 (ip), vehicle: saline) 105 % of control; (dose: 200.0 mg/kg/injection, schedule: Q04DX003 (ip), vehicle: saline) 102 % of control; (dose: 400.0 mg/kg/injection, schedule: Q01DX009 (ip), vehicle: saline) 97 % of control; (dose: 400.0 mg/kg/injection, schedule: Q04DX003 (ip), vehicle: saline) 105 % of control.
Regarding `C=C[N+](C)(C)C`, the T/C is, setting by setting: (dose: 5.0 mg/kg/injection, schedule: Q01DX001 (ip), vehicle: saline) 100 % of control; (dose: 10.0 mg/kg/injection, schedule: Q01DX001 (ip), vehicle: saline) 107 % of control; (dose: 20.0 mg/kg/injection, schedule: Q01DX001 (ip), vehicle: saline) 103 % of control; (dose: 40.0 mg/kg/injection, schedule: Q01DX001 (ip), vehicle: saline) 103 % of control.
Turning to `CC(=O)Oc1cccc(/C=C/C(=O)O)c1`, the T/C by setting is: under setting [1], 91 % of control; under setting [7], 98 % of control; under setting [2], 91 % of control; under setting [8], 102 % of control; under setting [3], 90 % of control; under setting [9], 91 % of control.
`[O-][n+]1ccccc1SSc1cccc[n+]1[O-]`: the T/C (dose: 6.25 mg/kg/injection, schedule: Q01DX009 (ip), vehicle: Klucel (hydroxypropylcellulose) (HPC)) is 99 % of control; the T/C (dose: 12.5 mg/kg/injection, schedule: Q01DX009 (ip), vehicle: Klucel (hydroxypropylcellulose) (HPC)) is 96 % of control and 98 % of control; the T/C (dose: 25.0 mg/kg/injection, schedule: Q01DX009 (ip), vehicle: Klucel (hydroxypropylcellulose) (HPC)) was 88 % of control.
With `N#C/C(N)=C(\C#N)N=Cc1ccc(-c2ccccc2)cc1`, the T/C runs as follows: (dose: 100.0 mg/kg/injection, schedule: Q01DX001 (ip), vehicle: saline with Tween-80) 97 % of control; (dose: 200.0 mg/kg/injection, schedule: Q01DX001 (ip), vehicle: saline with Tween-80) 92 % of control; (dose: 400.0 mg/kg/injection, schedule: Q01DX001 (ip), vehicle: saline with Tween-80) 93 % of control.
`CC(C)C(CN)(CCN(C)C)c1cccc2ccccc12` (stereo unspecified): under setting [7], the T/C is 88 % of control.
For the compound `CN=C(NC)c1ccc(NC(=O)c2ccc(C(=O)Nc3ccc(C(=NC)NC)c(OC)c3)c(Cl)c2)cc1OC`, for the setting “dose: 1.26 mg/kg/injection, schedule: Q01DX Z (ip), vehicle: saline”, the T/C was 98 % of control.
In the case of `CC(=O)Nc1ccc(/C=C/C(=O)c2ccc([N+](=O)[O-])cc2)cc1`, the T/C by setting is: under setting [1], 94 % of control; under setting [7], 91 % of control; under setting [2], 94 % of control; under setting [8], 94 % of control; under setting [3], 94 % of control; under setting [9], 90 % of control.
